# Assays:
# [1] = system: Human fibrosarcoma cells (HT-1080 cells); assay: In vitro inhibitory action against ferroptosis (Erastin-induced cell death, Cell Counting Kit-8); type: cell-based; settings: Evaluation concentration 30 μmol/L, Erastin 3 μmol/L, 24 hours
# Protocol: The inhibitory action against ferroptosis of the tetrahydroquinoline derivative (I) or a pharmaceutically acceptable salt thereof was evaluated with Human fibrosarcoma cells (HT-1080 cells), by using, as an index, the inhibitory action against the cell death induced by treatment with a ferroptosis inducer, Erastin.
# HT-1080 cells (ATCC) were cultured in a mixture (hereinafter referred to as vehicle) composed of DMEM/F12 (Thermo Fisher Scientific, Inc.), a final concentration of 10% fetal bovine serum (Thermo Fisher Scientific, Inc.), and a final concentration of 1% penicillin-streptomycin solution (Nacalai Tesque, Inc.). Cells were seeded into 96-well plates (Corning Inc.) at 5×10^4 cells/well and cultured overnight.
# A test compound was dissolved in DMSO, and the resulting solution was diluted in the vehicle to a final concentration of 1% DMSO and then used. […] Twenty-four hours after the addition of Erastin, 5 μL of Cell Counting Kit-8 (Dojindo Laboratories) was added to each well and incubated for 4 hours, and the absorbance at 450 nm was then measured for each well (N=2). The average absorbance value at 450 nm was calculated from the absorbance values of the wells, and the inhibition rate of ferroptosis by the test compound (hereinafter referred to as ferroptosis inhibition rate, %) was then calculated based on Equation 1.
# [2] = system: superoxide dismutase 1 (SOD1) G93A transgenic mice; assay: Assessment of motor dysfunction in amyotrophic lateral sclerosis model mouse (hind limb extension test); type: in vivo
# Protocol: The effect of the tetrahydroquinoline derivative (I) or a pharmaceutically acceptable salt thereof on the onset of a motor dysfunction in superoxide dismutase 1 (SOD1) G93A transgenic mice that are amyotrophic lateral sclerosis model mice was tested. The tetrahydroquinoline derivative (I) or a pharmaceutically acceptable salt thereof was evaluated using the compound of Example 1. The amyotrophic lateral sclerosis model mice used were transgenic mice overexpressing human superoxide dismutase 1 (SOD1) with G93A mutation (Jackson Laboratories #004435). Male transgenic mice and wild-type female C57BL/6J mice from Charles River were mated. The tail tips of the born offspring mice were used for genotyping. The obtained male transgenic mice were used for the evaluation. The test substance (compound of Example 1) was prepared as a suspension with the required concentration (10 mg/mL) using 0.5 w/v % methylcellulose as the vehicle, and was administered repeatedly and orally, once daily, five times a week, at a dosing volume of 10 mL/kg, or 100 mg/kg, starting at 56 days of age and continuing for 10 weeks (50 doses in total) until the mice reached 126 days of age. A group administered repeatedly and orally with the compound of Example 1 was termed the “Example 1” group (n=9). In addition, a group administered with 0.5 w/v % methylcellulose in the same volume, frequency, and method as the compound of Example 1 was termed the “vehicle” group (n=6). Whenever possible, litters were divided into both groups. Starting from the beginning of administration, a hind limb extension test was conducted before each dose to evaluate the motor function. […] The hind limb extension test was performed five times a week.
# [3] = In vitro radical scavenging action (DPPH method); settings: 1.2-100 μmol/L, 30 minutes at room temperature, absorbance at 517 nm
# Protocol: The radical scavenging action of a test compound can be evaluated using an in vitro test and, for example, by a method (Antioxidants, 2019, vol. 258) using a stable radical, 1,1-diphenyl-2-picrylhydrazil (DPPH).
# Radical scavenging action was evaluated using the DPPH method in the compound of Comparative Example 1, which is a tetrahydroquinoxaline derivative, and in the tetrahydroquinoline derivative (I) or a pharmaceutically acceptable salt thereof. The DPPH method was performed using an antioxidant capacity measurement kit (Dojindo Laboratories).
# A test compound was dissolved in DMSO, and the resulting solution was then mixed with an assay buffer and a DPPH solution, which are included in the kit, to a total volume of 200 μL to obtain a final concentration of 10% DMSO, and the reaction was allowed to proceed. Wells added with […] ferrostatin-1, a radical scavenger, were grouped as “control,” and wells not added with test compound were grouped as “background”. The test compound was serially diluted 3-fold starting from a maximum concentration of 100 μmol/L, and the diluted test compound (1.2, 3.7, 11.1, 33.3, or 100 μmol/L) was added and allowed to react at room temperature. Thirty minutes after the reaction, the absorbance at 517 nm was measured, and the average absorbance value was calculated (N=2). The radical scavenging action of the test compound (hereinafter referred to as radical scavenging rate, %) was calculated based on Equation 2. The EC50 value of the test compound was calculated from the radical scavenging rate.
# A note “no detection of radical scavenging action (N.D.),” is given to compounds with a EC50 of >100 μmol/L.
EC50 [3] [µM],Compound,Ferroptosis inhibition rate (%) [1] [%],"median value of the onset age in days ([2]; 100 mg/kg orally once daily, five times a week, from 56 days of age for 10 weeks, male SOD1 G93A transgenic mice, n=9)","age of onset in days vs vehicle group, log-rank (Mantel-Cox) test p ([2]; 100 mg/kg orally once daily, five times a week, from 56 days of age for 10 weeks, significantly higher than vehicle group)",effect on onset of motor dysfunction in amyotrophic lateral sclerosis model mice (in words) ([2]; compared to the vehicle group)
,"7-fluoro-(1H-pyrazol-4-yl)-1,2,3,4-tetrahydroquinoline [Example 140]",72.81,,,
> 100,"Cl.c1ccc(C2CCc3ccccc3N2)cc1 (centres unmarked) [Example 1, 2-phenyl-1,2,3,4-tetrahydroquinoline hydrochloride]",,121.0 days of age,< 0.05,delay the onset
